Key:
r-e5′NT = biological target: T1, r-e5′NT (Rattus norvegicus, UniProt P21588); assay: Ecto-5′-nucleotidase inhibition assay (capillary electrophoresis), rat enzyme; format: biochemical; conditions: for IC50 / inhibition at 100 µM: mean ± s.e.m., n = 3; for IC50: substrate AMP 500 µM; for inhibition at 100 µM: compound at 0.1 mM, read-out: r-e5′NT percentage inhibition ± s.e.m.; for inhibitory potential toward r-e5′NT after initial screening: initial screening at 0.1 mM
T1 construct: made in house; host or cells: COS-7 cells, transiently transfected; sonicated extract / membrane fraction
T1 sequence (P21588 29-576): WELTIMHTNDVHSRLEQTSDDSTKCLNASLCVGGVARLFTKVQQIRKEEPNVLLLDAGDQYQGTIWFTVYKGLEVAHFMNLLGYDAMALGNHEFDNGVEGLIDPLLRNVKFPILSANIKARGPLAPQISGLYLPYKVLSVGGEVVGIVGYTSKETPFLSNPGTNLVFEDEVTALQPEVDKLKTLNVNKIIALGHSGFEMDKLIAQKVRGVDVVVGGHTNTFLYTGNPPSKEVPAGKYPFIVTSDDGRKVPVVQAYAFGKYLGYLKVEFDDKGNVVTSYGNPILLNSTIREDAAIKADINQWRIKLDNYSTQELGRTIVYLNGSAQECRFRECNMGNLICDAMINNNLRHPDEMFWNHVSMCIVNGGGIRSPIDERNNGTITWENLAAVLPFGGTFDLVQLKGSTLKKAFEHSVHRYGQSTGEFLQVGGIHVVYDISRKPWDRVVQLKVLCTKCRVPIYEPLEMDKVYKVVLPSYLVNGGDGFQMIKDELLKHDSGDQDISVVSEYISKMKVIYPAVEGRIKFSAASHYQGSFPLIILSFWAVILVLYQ
Method: (§1) The plasmids expressing e5′NT, either rat or human, were used to transfect the COS-7 cells through lipofectamine. The confluent cells were allowed to incubate in DMEM/F-12 having plasmid DNA (6 µg) and transfecting reagent (24 µl) for 5 h at ambient temperature (37°C). To discontinue transfection, a specified volume of DMEM/F-12 was added, containing FBS (20%). These cells were then harvested after 2–3 days.
(§2) The transfected cells were separated from harvesting buffer (45 mM Tris buffer, 95 mM NaCl, and 0.1 mM PMSF, pH 7.5) through scraping, followed by washing with Tris buffer and then allowed to centrifuge by spinning at 300 r.p.m. at 4°C for 5 min [30]. Finally, the cells remained suspended in harvesting buffer solution containing aprotinin (10 µg ml^−1). As a result of sonication, the produced cellular debris was removed by cold centrifugation operated at 300 r.p.m. for 10 min. Glycerol (7.5%) was mixed with the resultant supernatant. The Bradford microplate assay was employed for estimation of protein concentration where albumin was used as a standard.
(§3) The e5′NT inhibition assay was performed with respect to our previously described procedure on P/ACE MDQ capillary electrophoresis system (Beckman Instruments, Fullerton, CA, USA) provided with UV detection system. The samples were prepared in the assay buffer (1 mM CaCl2, 10 mM Tris HCl and 2 mM MgCl2, pH 7.4) and analysed at 0.1 mM concentration. The total assay volume (100 µl) comprises sample (10 µl), 10 µl of h-e5′NT (6.94 µg ml^−1) protein extract or r-e5′NT (7.17 µg ml^−1) and 70 µl of assay buffer. The above mixture was allowed to incubate at 37°C for 10 min. Subsequently, biochemical reaction was started with the addition of substrate (10 µl) and AMP (500 µM). The mixture was incubated again for 30 min at 37°C. The enzyme-substrate reaction was stopped by thermal denaturation for the duration of 20 min by placing the mixture in a water bath at 99°C. Then, 50 µl of obtained mixture was filled into CE mini vials and injected with 0.5 psi into the capillary in 5 s, whereas 15 kV was set to split-up substrate and product peaks. […] Therefore, successive dilution of each active compound was made and different inhibitor concentrations were assayed to obtain the dose–response curve against both enzymes. All experiments were conducted thrice. The nonlinear regression analysis program (PRISM 5.0) was employed to calculate IC50 value.

h-e5′NT = biological target: T2, h-e5′NT (Homo sapiens, UniProt P21589); assay: Ecto-5′-nucleotidase inhibition assay (capillary electrophoresis), human enzyme; format: biochemical; conditions: for IC50 / inhibition at 100 µM: mean ± s.e.m., n = 3; for IC50: substrate AMP 500 µM; for inhibition at 100 µM: compound at 0.1 mM, read-out: h-e5′NT percentage inhibition ± s.e.m.; for inhibitory potential toward h-e5′NT after initial screening: initial screening at 0.1 mM
T2 construct: made in house; host or cells: COS-7 cells, transiently transfected; sonicated extract / membrane fraction
T2 sequence (P21589 27-574): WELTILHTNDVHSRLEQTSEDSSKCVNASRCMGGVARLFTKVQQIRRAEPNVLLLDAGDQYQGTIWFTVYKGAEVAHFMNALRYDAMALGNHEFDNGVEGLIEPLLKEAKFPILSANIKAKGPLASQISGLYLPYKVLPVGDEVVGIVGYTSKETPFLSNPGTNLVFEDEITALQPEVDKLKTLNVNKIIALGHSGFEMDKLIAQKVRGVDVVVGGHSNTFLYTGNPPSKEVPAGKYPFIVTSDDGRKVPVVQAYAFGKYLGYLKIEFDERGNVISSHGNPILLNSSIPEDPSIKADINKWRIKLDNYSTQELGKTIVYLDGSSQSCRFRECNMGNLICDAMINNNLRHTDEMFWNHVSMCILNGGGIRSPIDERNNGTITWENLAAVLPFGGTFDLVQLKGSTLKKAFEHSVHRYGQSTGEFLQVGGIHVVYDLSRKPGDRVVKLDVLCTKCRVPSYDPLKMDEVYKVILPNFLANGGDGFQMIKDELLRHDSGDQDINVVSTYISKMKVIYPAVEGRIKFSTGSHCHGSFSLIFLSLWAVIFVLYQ
Method: as §1, §2, §3

IC50 (r-e5′NT) [µM] | IC50 (h-e5′NT) [µM] | potency against h-e5′NT relative to r-e5′NT (h-e5′NT; ratio of IC50 r-e5′NT / h-e5′NT) [fold] | inhibition against h-e5′NT compared with positive control sulfamic acid (h-e5′NT; ratio of IC50 sulfamic acid / compound) [fold] | inhibition at 100 µM (r-e5′NT) [%] | inhibitory potential toward r-e5′NT after initial screening (r-e5′NT) | inhibition at 100 µM (h-e5′NT) [%] | inhibitory potential toward h-e5′NT after initial screening (h-e5′NT) | SMILES
7.81 ± 0.89 | 0.32 ± 0.03 | 24 | 132 | – | – | – | – | CC(=O)c1sc(N/N=C/c2cccnc2)nc1C [3a, (E)-1-(4-methyl-2-(2-(pyridin-3-ylmethylene)hydrazinyl)thiazol-5-yl)ethanone]
10.1 ± 0.58 | 0.56 ± 0.07 | – | – | – | – | – | – | CC(=O)c1sc(N/N=C/c2ccc(N(C)C)cc2)nc1C [3b, (E)-1-(2-(2-(4-(dimethylamino)benzylidene)hydrazinyl)-4-methylthiazol-5-yl)ethanone]
– | – | – | – | 15.3 ± 2.78 | no inhibitory potential | 38.1 ± 5.47 | no inhibitory potential | CC(=O)c1sc(N/N=C/c2ccco2)nc1C [3c, (E)-1-(2-(2-(furan-2-ylmethylene)hydrazinyl)-4-methylthiazol-5-yl)ethanone]
– | – | – | – | 12.3 ± 3.91 | no inhibitory potential | 43.6 ± 1.18 | no inhibitory potential | CC(=O)c1sc(N/N=C/c2ccc(C)o2)nc1C [3d, (E)-1-(4-methyl-2-(2-((5-methylfuran-2-yl)methylene)hydrazinyl)thiazol-5-yl)ethanone]
– | 3.36 ± 0.12 | – | – | 10.8 ± 4.25 | – | – | – | CC(=O)c1sc(N/N=C/c2ccc[nH]2)nc1C [3e, (E)-1-(2-(2-((1H-pyrrol-2-yl)methylene)hydrazinyl)-4-methylthiazol-5-yl)ethanone]
– | 6.19 ± 0.32 | – | – | 32.7 ± 1.62 | – | – | – | CC(=O)c1sc(N/N=C/c2cc3ccccc3[nH]2)nc1C [3f, (E)-1-(2-(2-((1H-indol-2-yl)methylene)hydrazinyl)-4-methylthiazol-5-yl)ethanone]
77.3 ± 7.01 | 42.1 ± 7.8 | – | – | – | – | – | – | NS(=O)(=O)O [sulfamic acid, reference compound]

Reference: article PMC6170555, “Synthesis of novel (E)-1-(2-(2-(4(dimethylamino) benzylidene) hydrazinyl)-4-methylthiazol-5-yl)ethanone derivatives as ecto-5′-nucleotidase inhibitors” (Royal Society Open Science, 2018)
